Experimental data from ChEMBL document CHEMBL1127407, “Unambiguous total synthesis of the enantiomers of myo-inositol 1,3,4-trisphosphate: 1L-myo-inositol 1,3,4-trisphosphate mobilizes intracellular Ca2+ in Limulus photoreceptors” (J Med Chem, 1994).

Assays:
[1] = Peak depolarizations produced by injections of 100 micro M Ins p3 isomers in nine cells; type: cell-based
[2] = Peak depolarizations produced by injections of 100 micro M Ins p3 isomers in six cells; type: cell-based

Depolarisation [1] [mV] | Depolarisation [2] [mV] | Structure (SMILES)
24 |  | O=P(O)(O)OC1C(O)C(O)C(OP(=O)(O)O)C(OP(=O)(O)O)C1O (stereo in doubt; form 1) [INOSITOL (1,4,5) (PHOSPHATE)3]
 | 32.5 | O=P(O)(O)OC1C(O)C(O)C(OP(=O)(O)O)C(OP(=O)(O)O)C1O (stereo in doubt; form 2) [INOSITOL (1,4,5) (PHOSPHATE)3]
5.7 | 3.4 | O=P(O)(O)OC1C(O)C(O)C(OP(=O)(O)O)C(OP(=O)(O)O)C1O (stereo in doubt; form 3) [INOSITOL (1,4,5) (PHOSPHATE)3]
